Experiments:
[1] = tested on: Mycobacterium tuberculosis; test: Antimycobacterial activity of compound against Mycobacterium tuberculosis H37Rv at 0.05 ug/mL; assay type: functional
[2] = tested on: Mycobacterium tuberculosis; test: Antimycobacterial activity of compound against Mycobacterium tuberculosis H37Rv at 1.56 ug/mL; assay type: functional
[3] = tested on: Mycobacterium tuberculosis; test: Antimycobacterial activity of compound against Mycobacterium tuberculosis H37Rv at 6.25 ug/mL; assay type: functional
[4] = tested on: Mycobacterium tuberculosis; test: Antimycobacterial activity of compound against Mycobacterium tuberculosis H37Rv at 2 ug/mL; assay type: functional
[5] = tested on: Mycobacterium tuberculosis; test: Antimycobacterial activity of compound against Mycobacterium tuberculosis H37Rv at 8 ug/mL; assay type: functional
[6] = tested on: Mycobacterium tuberculosis; test: Antimycobacterial activity of compound against Mycobacterium tuberculosis H37Rv at 1.88 ug/mL; assay type: functional
[7] = tested on: Mycobacterium tuberculosis; test: Antimycobacterial activity of compound against Mycobacterium tuberculosis H37Rv at 2.50 ug/mL
[8] = tested on: Mycobacterium tuberculosis; test: Antimycobacterial activity of compound against Mycobacterium tuberculosis H37Rv at 0.125 ug/mL; assay type: functional
[9] = tested on: Mycobacterium tuberculosis; test: Antimycobacterial activity of compound against Mycobacterium tuberculosis H37Rv at 5 ug/mL; assay type: functional

Structure (SMILES)	inhibition at 6.25 µg/mL [3] [%]	other results
NNC(=O)c1ccncc1 [ISONIAZID]	–	inhibition at 0.05 µg/mL [1]: 95%
CC(=O)Nc1ccc(NC(=O)N/N=C/c2cccc([N+](=O)[O-])c2)cc1	–	inhibition at 1.56 µg/mL [2]: 100%
CC(=O)Nc1ccc(NC(=O)N/N=C/c2ccccc2O)cc1	5	–
Cc1c(Cl)cccc1NC(=O)N/N=C/c1ccccc1O	0	–
Cc1c(Cl)cccc1NC(=O)N/N=C/c1ccc(N(C)C)cc1	0	–
CC(=O)Nc1ccc(NC(=O)N/N=C/c2ccccc2[N+](=O)[O-])cc1	90	–
O=C(O)c1cn(C2CC2)c2cc(N3CCNCC3)c(F)cc2c1=O [CIPROFLOXACIN]	–	inhibition at 2 µg/mL [4]: 95%
Cc1c(Cl)cccc1NC(=O)N/N=C/c1ccc([N+](=O)[O-])cc1	24	–
CC(=O)Nc1ccc(NC(=O)N/N=C/c2ccc(N(C)C)cc2)cc1	2	–
CC(=O)Nc1ccc(NC(=O)N/N=C/c2ccc([N+](=O)[O-])cc2)cc1	95	–
Nc1ccc(C(=O)O)c(O)c1 [AMINOSALICYLIC ACID]	–	inhibition at 8 µg/mL [5]: 92%
CC[C@@H](CO)NCCN[C@@H](CC)CO [ETHAMBUTOL]	–	inhibition at 1.88 µg/mL [6]: 90%
CCc1cc(C(N)=S)ccn1 [ETHIONAMIDE]	–	inhibition at 2.5 µg/mL [7]: 90%
CO[C@H]1/C=C/O[C@@]2(C)Oc3c(C)c(O)c4c(O)c(c(/C=N/N5CCN(C)CC5)c(O)c4c3C2=O)NC(=O)/C(C)=C\C=C\[C@H](C)[C@H](O)[C@@H](C)[C@@H](O)[C@@H](C)[C@H](OC(C)=O)[C@@H]1C [RIFAMPIN]	–	inhibition at 0.125 µg/mL [8]: 95%
Cc1c(Cl)cccc1NC(=O)N/N=C/c1ccccc1[N+](=O)[O-]	10	–
Cc1c(Cl)cccc1NC(=O)N/N=C/c1cccc([N+](=O)[O-])c1	58	–
NC[C@H]1O[C@H](O[C@H]2[C@H](O)[C@@H](O[C@H]3O[C@H](CO)[C@@H](O)[C@H](N)C3O)[C@H](N)C[C@@H]2N)[C@H](O)[C@@H](O)[C@@H]1O (single isomer, unassigned) [KANAMYCIN]	–	inhibition at 5 µg/mL [9]: 90%

Reference: ChEMBL document CHEMBL1137114, “Antituberculous activity of some aryl semicarbazone derivatives” (2004)
